According to US20160113265A1, “[…] AND METHODS THEREOF” (Lanodir USA, Inc., priority 2014, published 2016):
Where two headings read alike, the source gives them in different places.

Columns and labels:
[1] = tested on: live pests; test: Condition of fumigated barge cargo on arrival at destination port (residues, live pests); type: in vivo; conditions: approximately two weeks later
Experimental: A fumigation apparatus, such as the fumigation apparatus 10 (FIGS. 1A-1C), was provided in a barge hatch at a source shipping port that was subsequently loaded with 2,700 metric tons of corn kernels (cargo). A dose of 2,600 g PH3 was injected (approximately […]) without the use of a turbine (e.g., fan). A PH3 sensor was then used to measure the air quality immediately above the surface of the cargo and the gas concentration the approximately 1 meter below the surface of the cargo (using a probe) at predetermined time intervals.
On the same day as Experiment 1, a fumigation apparatus, such as the fumigation apparatus 10 (FIGS. 1A-1C), was provided in a barge hatch at the source shipping port that was subsequently loaded with 2,700 metric tons of corn kernels (cargo). A dose of 2,200 g PH3 was injected (approximately 0.814 g PH3/ton cargo) with a turbine (e.g., fan) to push the PH3. The PH3 sensor was then used to measure the air quality immediately above the surface of the cargo and the gas concentration the approximately 1 meter below the surface of the cargo (using a probe) at predetermined time intervals.
The day following Experiment 1 and Experiment 2, a fumigation apparatus, such as the fumigation apparatus 10 (FIGS. 1A-1C), was provided in a barge hatch at the source shipping port that was subsequently loaded with 2,700 metric tons of corn kernels (cargo). A dose of 1,700 g PH3 was injected (approximately […]) without auxiliary turbine and only with the air flow of the phosphine mixture delivery equipment itself (e.g., approximately 200 m^3/hour). The PH3 sensor was then used to measure the air quality immediately above the surface of the cargo and the gas concentration the approximately 1 meter below the surface of the cargo (using a probe) at predetermined time intervals.
The same day as Experiment 3, and eight days thereafter, nine barges were loaded and fumigated in a similar manner as in Experiment 3 to test repeatability.

[2] = tested on: Amyelois transitella; conditions: exposed for 24 Hours at 26.7° C. (80° F.), cited from earlier work
[3] = tested on: Orzaephilus surinamensis; conditions: exposed for 24 Hours at 26.7° C. (80° F.), cited from earlier work
[4] = tested on: Tribolium castaneum; conditions: exposed for 24 Hours at 26.7° C. (80° F.), cited from earlier work
[5] = tested on: Tribolium confusum; conditions: exposed for 24 Hours at 26.7° C. (80° F.), cited from earlier work
[6] = tested on: Lasioderma serricorne; conditions: exposed for 24 Hours at 26.7° C. (80° F.), cited from earlier work
[7] = tested on: Carpophilus hemipterus; conditions: exposed for 24 Hours at 26.7° C. (80° F.), cited from earlier work
[8] = tested on: Plodia interpunctella; conditions: exposed for 24 Hours at 26.7° C. (80° F.), cited from earlier work

## P [PH3, phosphine gas]
[1]; Experiment 1: 2,600 g PH3 in 2,700 metric tons corn kernels, without turbine
  cargo condition on arrival (residues and live pests): free of residues and live pests
[1]; Experiment 2: 2,200 g PH3 in 2,700 metric tons corn kernels, with a turbine
  cargo condition on arrival (residues and live pests): free of residues and live pests
[1]; Experiment 3: 1,700 g PH3 in 2,700 metric tons corn kernels, without auxiliary turbine
  cargo condition on arrival (residues and live pests): free of residues and live pests
[1]; Experiment 4: nine additional barges fumigated as in Experiment 3
  cargo condition on arrival (residues and live pests): free of residues and live pests
[2]; 250 ppm PH3
  Percent (%) Mortality adults: 100%
  Percent (%) Mortality eggs: 0-78%
  Percent (%) Mortality larvae: 100%
  Percent (%) Mortality pupae: 100%
[2]; 500 ppm PH3
  Percent (%) Mortality adults: 100%
  Percent (%) Mortality eggs: 20-80%
  Percent (%) Mortality larvae: 100%
  Percent (%) Mortality pupae: 100%
[2]; 1000 ppm PH3
  Percent (%) Mortality adults: 100%
  Percent (%) Mortality eggs: 70-100%
  Percent (%) Mortality larvae: 100%
  Percent (%) Mortality pupae: 100%
[3]; 250 ppm PH3
  Percent (%) Mortality adults: 100%
  Percent (%) Mortality eggs: 100%
  Percent (%) Mortality larvae: 97-100%
  Percent (%) Mortality pupae: 100%
[3]; 500 ppm PH3
  Percent (%) Mortality adults: 100%
  Percent (%) Mortality eggs: 100%
  Percent (%) Mortality larvae: 100%
  Percent (%) Mortality pupae: 100%
[3]; 1000 ppm PH3
  Percent (%) Mortality adults: 100%
  Percent (%) Mortality eggs: 100%
  Percent (%) Mortality larvae: 100%
  Percent (%) Mortality pupae: 100%
[4]; 250 ppm PH3
  Percent (%) Mortality adults: 100%
  Percent (%) Mortality eggs: 90-100%
  Percent (%) Mortality larvae: 100%
  Percent (%) Mortality pupae: 100%
[4]; 500 ppm PH3
  Percent (%) Mortality adults: 100%
  Percent (%) Mortality eggs: 100%
  Percent (%) Mortality larvae: 100%
  Percent (%) Mortality pupae: 100%
[4]; 1000 ppm PH3
  Percent (%) Mortality adults: 100%
  Percent (%) Mortality eggs: 100%
  Percent (%) Mortality larvae: 100%
  Percent (%) Mortality pupae: 100%
[5]; 250 ppm PH3
  Percent (%) Mortality adults: 100%
  Percent (%) Mortality eggs: 59-80%
  Percent (%) Mortality larvae: 100%
  Percent (%) Mortality pupae: 89-95%
[5]; 500 ppm PH3
  Percent (%) Mortality adults: 100%
  Percent (%) Mortality eggs: 83-100%
  Percent (%) Mortality larvae: 100%
  Percent (%) Mortality pupae: 89-98%
[5]; 1000 ppm PH3
  Percent (%) Mortality adults: 100%
  Percent (%) Mortality eggs: 100%
  Percent (%) Mortality larvae: 100%
  Percent (%) Mortality pupae: 94-100%
[6]; 250 ppm PH3
  Percent (%) Mortality adults: 100%
  Percent (%) Mortality eggs: 87-94%
  Percent (%) Mortality larvae: 100%
  Percent (%) Mortality pupae: 100%
[6]; 500 ppm PH3
  Percent (%) Mortality adults: 100%
  Percent (%) Mortality eggs: 87-96%
  Percent (%) Mortality larvae: 100%
  Percent (%) Mortality pupae: 100%
[6]; 1000 ppm PH3
  Percent (%) Mortality adults: 100%
  Percent (%) Mortality eggs: 96-100%
  Percent (%) Mortality larvae: 100%
  Percent (%) Mortality pupae: 100%
[7]; 250 ppm PH3
  Percent (%) Mortality adults: 100%
  Percent (%) Mortality eggs: 100%
  Percent (%) Mortality larvae: 100%
  Percent (%) Mortality pupae: 100%
[7]; 500 ppm PH3
  Percent (%) Mortality adults: 100%
  Percent (%) Mortality eggs: 100%
  Percent (%) Mortality larvae: 100%
  Percent (%) Mortality pupae: 100%
[7]; 1000 ppm PH3
  Percent (%) Mortality adults: 100%
  Percent (%) Mortality eggs: 100%
  Percent (%) Mortality larvae: 100%
  Percent (%) Mortality pupae: 100%
[8]; 250 ppm PH3
  Percent (%) Mortality adults: 100%
  Percent (%) Mortality eggs: 89-96%
  Percent (%) Mortality larvae: 95-100%
  Percent (%) Mortality pupae: 100%
[8]; 500 ppm PH3
  Percent (%) Mortality adults: 100%
  Percent (%) Mortality eggs: 90-100%
  Percent (%) Mortality larvae: 97-99%
  Percent (%) Mortality pupae: 100%
[8]; 1000 ppm PH3
  Percent (%) Mortality adults: 100%
  Percent (%) Mortality eggs: 95-100%
  Percent (%) Mortality larvae: 100%
  Percent (%) Mortality pupae: 100%
